Experimental data reported in article PMC8191578, “Targeting the TLR2 Receptor With a Novel Thymopentin-Derived Peptide Modulates Immune Responses” (Frontiers in Immunology, 2021).
Marks after values point to notes of the source that are not given here. Where no end group is shown, it is not given here.

How the values were obtained:
[1] = Ex vivo stability in human serum; type: in vitro ADME; settings: human serum (Sigma), lipids removed by centrifugation, pre-incubated 15 min at 37°C, peptide 10 µg/mL, HPLC, logarithm-linear regression, mean ± SD, n=5
Description: Human serum was purchased from Sigma (St. Louis, MO, USA). […] The half-lives of CATH2, TP5, and CbTP (10 µg/mL) were evaluated in vitro following incubation at 37°C in human serum at different time points. The samples were collected into prechilled tubes containing 1 mL of acidic acetone (hydrochloric acid/acetone/H2O, 1:40:5, by volume) and centrifuged at 2,000 ×g for 20 min at 4°C.
The obtained precipitates were dried in vacuo, after which the dried precipitates were dissolved in 0.5 mL of 1 M acetic acid. The peptide analysis was carried out according to the protocol for the study of TP5 using HPLC ([26]). The half-lives of the target peptides were calculated by a logarithm-linear regression analysis of the peptide concentrations.

recombinant TLR2 = target: T1, recombinant TLR2 (Homo sapiens, UniProt O60603); experiment: Surface plasmon resonance binding to immobilized TLR2; settings: SPR, ProteOn XPR36, GLH chip, 25°C, PBS with 1% Tween 20; CbTP 0-10 μM; 1:1 model; read-out: association rate constant Ka
T1 construct: purchased R&D Systems
Description: Surface plasmon resonance (SPR) experiments were performed using a ProteOn XPR36 instrument (Bio-Rad, Hercules, CA, USA) with a ProteOn GLH sensor chip (Bio-Rad) at 25°C. The running buffer (PBS with 1% Tween 20) was continuously passed into reaction chamber. An SPR sensing chip with recombinant TLR2 (R&D Systems, Minneapolis, MN, USA) was immobilized by amino coupling to capture CbTP, as described in the manufacturer’s protocol. The binding affinity of CbTP to the TLR2-covered surface was examined in varying concentrations of the CbTP peptide (0, 1.25, 2.5, 5, and 10 μM). The running buffer was injected into the empty channels as a reference. To regenerate the chip surface at the end of each experiment, 10 mM Gly-HCl buffer (pH 2.5) was injected. Data analysis was conducted using ProteOn manager software (version 2.0). The binding curves were processed for the start injection alignment and baseline. The reference-subtracted sensorgram was then fitted to the curves labeling a homogeneous 1:1 model and protein surface data were grouped together to fit the association (K a) and dissociation (K d) rate constants. The equilibrium dissociation constant (KD) for the peptide-TLR2 interaction was calculated using the following equation: […]

T1 sequence (O60603 21-784, species assumed): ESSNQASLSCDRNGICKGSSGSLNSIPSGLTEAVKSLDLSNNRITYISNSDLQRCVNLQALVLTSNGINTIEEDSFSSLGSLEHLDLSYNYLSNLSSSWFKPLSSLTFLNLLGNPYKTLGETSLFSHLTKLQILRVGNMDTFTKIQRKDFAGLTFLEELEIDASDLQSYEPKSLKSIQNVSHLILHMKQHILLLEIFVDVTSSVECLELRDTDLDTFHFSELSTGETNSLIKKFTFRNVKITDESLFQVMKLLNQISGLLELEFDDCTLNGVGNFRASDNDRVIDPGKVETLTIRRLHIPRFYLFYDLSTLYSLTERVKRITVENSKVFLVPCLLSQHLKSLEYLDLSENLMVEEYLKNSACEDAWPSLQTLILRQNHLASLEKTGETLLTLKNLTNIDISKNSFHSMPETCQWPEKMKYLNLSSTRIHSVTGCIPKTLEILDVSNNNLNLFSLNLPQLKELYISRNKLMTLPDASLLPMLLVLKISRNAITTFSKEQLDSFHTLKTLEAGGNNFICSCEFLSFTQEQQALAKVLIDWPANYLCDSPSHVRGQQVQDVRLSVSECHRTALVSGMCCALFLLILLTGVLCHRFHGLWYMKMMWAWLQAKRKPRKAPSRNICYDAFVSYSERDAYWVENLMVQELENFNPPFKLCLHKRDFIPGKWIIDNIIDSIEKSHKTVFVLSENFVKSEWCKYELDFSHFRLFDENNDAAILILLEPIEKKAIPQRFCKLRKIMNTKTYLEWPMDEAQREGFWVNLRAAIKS

t1/2 in human serum [1] | kon (recombinant TLR2) | Sequence
302 ± 34.5^a min | – | RFGRFLRKIRRFRPKVTITIQGSARFG [CATH2, Cathelicidin-2, reference compound]
353 ± 41.3^a min | 3.61e+08 M⁻¹ s⁻¹ | RFGRFLRKIRRFRRKDVY [CbTP]
